Experimental findings from PubChem BioAssay AID2384 (Southern Research Specialized Biocontainment Screening …, 2010) are described below.

The structures appear in SMILES notation.

The assay deals with S. typhi GFP reporter counter-screen, fluorescence, 4 h. Briefly: S. typhi counter-screen signal inhibition – fluorescence, 4 h, counter-screen for PhoP regulon inhibitor project, dose response (AID 2384). A general note: A counterscreen serves to expose hits that act by an unwanted route or on another target.
Turning to `c1ccc(Nc2ccnc(Nc3ccccc3)n2)cc1`, the half-maximal inhibitory concentration (IC50) is 38.9 µM.

For `CCCCCCCCC[n+]1cccc2c3ccccc3ccc21`, the IC50 was 15.1 µM.

In the case of `CC(c1cccnc1)N(CCN(C)C)C(=O)Nc1ccc(Cl)c(Cl)c1` (stereo not given), the IC50 is 98.4 µM.

On to `O=C(Oc1c(Br)cc([N+](=O)[O-])cc1Br)c1cccnc1`, for which the IC50 was 28.5 µM.

In the case of `C=CCNc1ncnc2c1[nH]c1ccc(Cl)cc12`, the IC50 was 37.2 µM.

`CNCCC=C1c2ccccc2CCc2ccccc21`: the IC50 was 117 µM.

With `OCCNc1nc(Nc2ccccc2)nc2ccccc12`, the half-inhibitory concentration (IC50) is 22.4 µM.

On to `O=C(NCCCN1CCOCC1)c1sc2cc(Cl)ccc2c1Cl`, for which the IC50 was 81.7 µM.

Consider `Clc1cccc(CN2CCc3c([nH]c4ccccc34)C2)c1Cl`, for which the IC50 was 136 µM.

As to `O=C(N/N=C/c1ccc([N+](=O)[O-])s1)c1cccnc1`, the IC50 was 34.7 µM.

With `O=C(O)c1ccc(N2C(=O)CSC2=S)cc1`, the IC50 was 137 µM.

Regarding `CCn1cc(C(=O)O)c(=O)c2cc(F)c(N3CCN(C(=S)NC(=O)c4ccc(Br)cc4)CC3)cc21`, the IC50 is 56 µM.

As for `CCOC(=O)C1=C(O)c2ccccc2C(=O)/C1=C\c1ccc(C)cc1`, the IC50 was 137 µM.

As for `NC1=NC2=C(CCCC2)C2(CCCCC2)S1`, the IC50 was 63.8 µM.

As for `O=C(Nc1c2ccccc2nc2ccccc12)C(Cl)(Cl)Cl`, the IC50 is 79.8 µM.

Turning to `CCCCOc1ccc(C(=O)NNC(=S)NC(=O)CC)cc1`, the IC50 is 33.6 µM.

Take `CC1CCc2cc(F)cc3c(=O)c(C(=O)O)cn1c23` (stereo not given): the IC50 was 15.6 µM.

For the molecule `CN(C)CCOC(=O)c1sc2ccccc2c1Cl`, the IC50 is 125 µM.

In the case of `O=C1C=C(Nc2ccccc2O)c2ccccc2C1=O`, the IC50 is 101 µM.

On to `CCCCCCCCCCOC(=O)Cn1c(COc2ccccc2C)[n+](C)c2ccccc21`, for which the IC50 is 10.4 µM.

Take `Nc1nonc1-n1nnc(C(=O)N/N=C/c2ccccc2O)c1CN1CCCC1`: the IC50 was 112 µM.

With `CCC(C)N1CCC2(CC1)N=c1c(c3c4c5c(C)c(O)c3c(O)c1=NC(=O)C(C)=CC=C[C@H](C)[C@H](O)[C@@H](C)[C@@H](O)[C@@H](C)[C@H](OC(C)=O)[C@H](C)[C@@H](OC)C=CO[C@@](C)(O5)C4=O)N2` (stereo not given in full), the IC50 is 5.31 µM.

Take `Cc1cc(OCC(O)CNC(C)c2ccccc2)ccc1C(C)C` (stereo not given): the IC50 is 38.3 µM.

Turning to `Cc1ccc(C(=O)O)cc1N=Cc1cc(Br)cc(Br)c1O`, the IC50 was 16.7 µM.

As to `N/C(=N\OS(=O)(=O)c1ccc(Cl)cc1)c1cccnc1`, the IC50 is 12.4 µM.

In the case of `Oc1c(I)cc(Cl)c2cccnc12`, the IC50 was 5.62 µM.

Consider `Cc1cccc(OCC(O)Cn2c(=N)n(CCN3CCCCC3)c3ccccc32)c1` (stereo not given), for which the IC50 is 10.4 µM.

As to `CN1CCc2c(sc(NC(=O)c3ccc([N+](=O)[O-])o3)c2C(N)=O)C1`, the IC50 was 17.1 µM.

Consider `CCCCCCCNC(=O)C1(CC2CC(c3ccc(Cl)cc3)=NO2)CCNCC1` (stereo not given), for which the IC50 is 23.8 µM.

`CC1CCC(C(C)C)C(OC(=O)Cn2c(COc3ccccc3)[n+](C)c3ccccc32)C1` (stereo not given): the IC50 was 25.6 µM.

Regarding `O=C(CCNC(=O)c1ccco1)Nc1ccc(SC(F)F)cc1`, the IC50 was 93.7 µM.

For `CCn1cc(C(=O)O)c(=O)c2cc(F)c(N3CCN(C(=S)NC(=O)c4ccccc4)CC3)cc21`, the IC50 was 78.2 µM.

As for `Clc1ccc(OCCCNCc2ccccc2)c2ccccc12`, the IC50 is 18.3 µM.

For `CN(C)CCCN1c2ccccc2CCc2ccc(Cl)cc21`, the IC50 is 70.5 µM.

For the molecule `COc1ccc(/C=N/Nc2cc(C)nc3c(C)cccc23)cc1`, the IC50 was 40.7 µM.

In the case of `CCn1cnc2cc(NCc3ccc(Br)cc3)ccc21`, the IC50 was 138 µM.

With `Cc1ccc(C(C[N+](=O)[O-])Sc2ccc(N)cc2)cc1` (stereo not given), the IC50 is 26.7 µM.

In the case of `CCCCCCCCCCOC(=O)Cn1c(COc2ccccc2OC)[n+](C)c2ccccc21`, the IC50 is 20 µM.

For the molecule `Cc1cc(C)n(-c2nc(NCCN(C)C)c3c4c(sc3n2)CCCC4)n1`, the IC50 was 37.9 µM.

Consider `CC(=O)Nc1cccc(NC(=O)Nc2ccc(F)cc2F)c1`, for which the 50% inhibitory concentration (IC50) is 142 µM.

For `O=C(C[n+]1cnn(CC(=O)c2ccc(Cl)cc2Cl)c1)c1ccc([N+](=O)[O-])cc1`, the IC50 was 36.1 µM.

On to `OCCNc1nc(Nc2ccc(Br)cc2)nc2ccccc12`, for which the IC50 is 15.9 µM.

Consider `C[C@H]1c2cccc(O)c2C(O)=C2C(=O)[C@]3(O)C(O)=C(C(N)=O)C(=O)[C@@H](N(C)C)[C@@H]3[C@@H](O)[C@@H]21`, for which the IC50 is 1.56 µM.

On to `CCc1ccc(NC(=O)C[n+]2cc(-c3ccc(C)cc3)n3c2CCC3)cc1`, for which the IC50 was 37.2 µM.

For the molecule `O=C(N=Nc1c(O)[nH]c2ccccc12)c1cc(-c2cccs2)[nH]n1`, the IC50 is 81.4 µM.

Regarding `CN(C)CCCOC(=O)c1sc2ccccc2c1Cl`, the IC50 is 68.6 µM.

In the case of `COc1ccc(NC2=NC3(CCCCC3)N=C(N)N2)cc1`, the IC50 is 138 µM.

On to `CCOC(=O)c1ccccc1-n1c(C)cc(C2N=C(N)Nc3nc4ccccc4n32)c1C` (stereo not given), for which the IC50 is 39.4 µM.

Take `Nc1c2ccccc2nc2ccccc12`: the IC50 was 39.5 µM.

As to `Oc1ccccc1-c1cc(C(F)(F)C(F)F)[nH]n1`, the IC50 was 81.2 µM.

Take `Nc1nc(Nc2ccccc2)nc2ccccc12`: the IC50 is 42.4 µM.

As for `COc1cc([N+](=O)[O-])cc(/C=N/NC(=O)C(O)(c2ccccc2)c2ccccc2)c1O`, the IC50 was 80 µM.

`Oc1ccc(N=Nc2ccc(Br)cc2)c(O)c1`: the IC50 was 100 µM.

Regarding `Nc1cc(=O)[nH]c(=S)n1-c1cccc(C(F)(F)F)c1`, the IC50 is 145 µM.

As to `CCOC(=O)N1CCN(C(=O)c2cn(CC)c3cc(N4CCN(C)CC4)c(F)cc3c2=O)CC1`, the half-inhibitory concentration (IC50) is 20.3 µM.

With `Cc1cccc2c1Sc1ccc(Cl)cc1CC2N1CCNCC1` (stereo not given), the IC50 was 71.8 µM.

`COc1ccc(C(=O)CCN2CCc3cc(OC)c(OC)cc3C2)cc1`: the half-inhibitory concentration (IC50) was 120 µM.

With `OCCCCNCc1ccc(OCc2ccc(Cl)cc2Cl)cc1`, the IC50 is 56.7 µM.

Take `O=C1OCCN1/N=C/c1ccc([N+](=O)[O-])o1`: the IC50 is 28.2 µM.

`CN(C)CCCNc1c2ccccc2nc2ccccc12`: the 50% inhibitory concentration (IC50) was 40.7 µM.

Turning to `CN(C)CC/C=C1/c2ccccc2Sc2ccc(Cl)cc21`, the IC50 is 30.1 µM.

With `CCCOc1ccc(C(=O)NNC(=S)NC(=O)c2ccco2)cc1`, the IC50 is 36.8 µM.

For `C#CCOCCOCCOCCNc1nc(N2CCN(C(=O)CCCCCCCCCCNC(=O)Cn3cc(CCCCCN)nn3)CC2)nc(N2CCN(C(=O)CCCCCCCCCCNC(=O)[C@H]([C@@H](C)CC)n3cc(CCCCCN)nn3)CC2)n1`, the IC50 was 38.8 µM.

As for `CCCCc1ccc(N/C(N)=N/c2nc(C)cc(C)n2)cc1`, the IC50 was 52.3 µM.

In the case of `CCCCCCC[N+](CC)(CC)CCCCc1ccc(Cl)cc1`, the IC50 was 37.3 µM.

As to `O=C(N/N=C/c1ccccn1)c1cccs1`, the IC50 was 65.5 µM.

Take `CC(=O)Oc1ccccc1C(=O)Nc1ncc([N+](=O)[O-])s1`: the IC50 is 92 µM.

Consider `Cc1occc1C(=O)N/N=C/c1cccs1`, for which the IC50 is 54.9 µM.

For `CS(=O)(=O)c1ccc([C@@H](O)[C@@H](CO)NC(=O)C(Cl)Cl)cc1`, the IC50 is 18 µM.

For `CCCN(CCC)CCNC(=O)C1CCN(Cc2nc(-c3ccc(Cl)cc3)oc2C)CC1`, the IC50 was 57.1 µM.

Regarding `CC1(C)CC(N2CCN(C(c3ccccc3)c3ccccc3)CC2)=CC(=[N+]2CCCCC2)C1`, the IC50 is 63.2 µM.

Take `N=c1c2c(n(Cc3ccc(Cl)c(Cl)c3)c3c1CCC3)CCCC2`: the IC50 is 31.1 µM.

Consider `Cc1ccc2c(c1)c1c(n2CC(O)CN2CCC(C)CC2)CCCC1` (stereo not given), for which the IC50 is 82.4 µM.

In the case of `O=C(Cn1nc(CNc2ccc(Br)cc2)[n+]2c1CCCCC2)c1ccc([N+](=O)[O-])cc1`, the IC50 is 35 µM.

With `C#CCOCCOCCOCCNc1nc(N2CCN(C(=O)[C@H](Cc3cc4ccccc4[nH]3)n3cc([C@@H](N)CC(C)C)nn3)CC2)nc(N2CCN(C(=O)[C@H](Cc3cc4ccccc4[nH]3)n3cc([C@@H](N)CC(C)C)nn3)CC2)n1`, the IC50 is 19.1 µM.

Consider `CN(C)CCCNC(=O)c1ccc(-c2nc(-c3ccc(Cl)cc3)cs2)cc1`, for which the IC50 was 19.7 µM.

`CCOc1ccc(-c2cc(C)[n+](CCN(CC)CC)c(-c3ccc(OCC)cc3)c2)cc1`: the IC50 was 26.4 µM.

As for `O=c1ccc2cc3c([nH]c4ccc(Br)cc43)oc-2c1O`, the IC50 is 18.2 µM.

`OCCN1CCN(Cc2cc(Cl)c3cccnc3c2O)CC1`: the IC50 was 56.6 µM.

`Cc1cc(NC(=O)c2ccccc2)sc1C`: the IC50 was 79.8 µM.

Take `O=C(N/N=C/c1c(O)ccc2ccccc12)c1ccc(CO)nc1`: the IC50 is 81.7 µM.

For `C[C@H]1COc2c(N3CCN(C)CC3)c(F)cc3c(=O)c(C(=O)O)cn1c23`, the IC50 was 0.69 µM.

Consider `O=[N+]([O-])c1cc(/C=N/Nc2nc3ccccc3[nH]2)c(O)cc1O`, for which the IC50 was 17.8 µM.

With `O=Nc1ccc(O)c2ncccc12`, the IC50 was 20 µM.

As to `Cc1cc(Br)ccc1OCCCCNCCO`, the IC50 is 30.7 µM.

On to `OC(CNCC1CCCO1)Cn1c2ccc(Cl)cc2c2cc(Cl)ccc21` (stereo not given), for which the IC50 is 23.7 µM.

As for `Oc1ccc(/C=N/Nc2nccnc2Cl)c(O)c1`, the IC50 is 30.5 µM.

As to `N#C/C(=C\c1ccc(O)c(O)c1)C(=O)NCc1ccccc1`, the IC50 was 132 µM.

Consider `COc1nsnc1NS(=O)(=O)c1ccc(NC(=S)NC(=O)c2cccnc2)cc1`, for which the IC50 is 68.5 µM.

As to `Cc1[nH]c2ccc(C(=O)Nc3ccncc3)cc2c1C`, the IC50 was 90.8 µM.

For `CN(C)c1ccc(O)c2c1CC1CC3C(N(C)C)C(=O)C(C(N)=O)=C(O)[C@@]3(O)C(=O)C1=C2O` (stereo not given in full), the IC50 was 1.69 µM.

`O=C(CC(=O)c1c(F)cccc1Cl)c1ccccc1O`: the IC50 is 42.9 µM.

On to `CN1CCN(C2Cc3ccc(Cl)cc3Sc3ccc(F)cc32)CC1` (stereo not given), for which the IC50 was 19.9 µM.

Regarding `COc1ccc(C(=O)NC(=S)NNC(=O)c2cccc(C)c2)cc1`, the IC50 was 48.8 µM.

Consider `Clc1ccc(OCCCN2CCCC2)cc1Cl`, for which the IC50 was 28.3 µM.

For `O=C(N/N=C/c1cc(Cl)ccc1O)c1ccncc1`, the IC50 was 17.3 µM.

Consider `O=C(Nc1nnc(-c2cccs2)o1)c1cccc(Oc2ccccc2)c1`, for which the IC50 was 59.6 µM.

Regarding `Cc1ccc(S(=O)(=O)CCC(=O)c2ccc(O)cc2O)cc1`, the IC50 is 57.5 µM.

Regarding `NC1=NC[C@H](Cc2ccc(O)cc2)N1CCCCC1CCCCC1`, the IC50 was 13.9 µM.

For `COc1cc(CNCCc2c[nH]c3ccccc23)ccc1OCc1ccc(F)cc1`, the IC50 was 37.6 µM.

What is called IC50 is the concentration that inhibits the measured activity by half.
